Experimental data reported in patent US20040127413A1, “Enteric keto acid and amino acid salts and their use for preparing medicines” (priority 2001, published 2004).
Marks after values point to notes of the source that are not given here.

Test system: Male Sprague-Dawley rats
Assay: Colic distension model (visceral pain model in the rat), abdominal cramps counted

CCC(=O)C(=O)O.NC(N)=NCCC[C@H](N)C(=O)O [Arginine alpha-ketobutyrate, arginine alpha-ketobutyrate]
Number of abdominal cramps, Average (10 mg/kg p.o. pH 1): 15
Number of abdominal cramps, Average (10 mg/kg p.o. pH 6): 9*
Activity in the colon distension model (in words) (p.o. at pH 1): inactive
Activity in the colon distension model (in words) (p.o. at pH 6 (neutral)): active
